Experimental data reported in US11591658B2, “Methods for sub-typing and treating cancer” (HI-STEM gGmbH, priority 2017, dated 2023).

Columns and labels:
[1] = tested on: AML cells with long-term BCAT1-overexpression; experiment: Sensitivity of long-term BCAT1-overexpressing AML cells to daunorubicin; assay type: cell-based; settings: FIG. 5i
From the text: AML patient survival is usually associated with sensitivity to standard chemotherapy^23,24. […] Along these lines, BCAT1 expression was consistently higher (on average 6.6-fold) in the relapse versus the paired diagnostic sample (FIG. 5j).

EGLN1 = target: T1, EGLN1 (Homo sapiens, UniProt Q9GZT9); experiment: HIF1 protein levels in BCAT1 knockdown cells treated with cobalt chloride; assay type: cell-based; settings: BCAT1 knockdown cells (HL-60), cobalt chloride given to inhibit EGLN1 activity, FIG. 4g
T1 construct: endogenous in cells; host or cells: HL-60 AML cells transduced with shBCAT1 (BCAT1 knockdown)
T1 sequence (Q9GZT9 whole entry): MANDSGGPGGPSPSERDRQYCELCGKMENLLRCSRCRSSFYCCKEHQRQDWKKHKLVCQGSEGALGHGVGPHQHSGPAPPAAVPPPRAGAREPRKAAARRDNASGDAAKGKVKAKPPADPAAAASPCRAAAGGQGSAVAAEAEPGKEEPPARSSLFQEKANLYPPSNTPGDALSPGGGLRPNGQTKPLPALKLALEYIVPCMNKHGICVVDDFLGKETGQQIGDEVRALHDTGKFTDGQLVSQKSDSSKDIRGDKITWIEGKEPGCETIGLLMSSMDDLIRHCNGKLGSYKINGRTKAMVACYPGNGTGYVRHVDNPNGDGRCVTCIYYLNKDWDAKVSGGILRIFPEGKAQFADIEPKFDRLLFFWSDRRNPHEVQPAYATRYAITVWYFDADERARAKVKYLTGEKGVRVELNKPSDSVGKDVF
From the text: To gain additional mechanistic insight into cellular pathways affected by BCAT1, we utilized the HL-60 AML cell line. […] Western blot analysis confirmed HIF1 as downstream target of BCAT1 (FIG. 4e), and decreased HIF1 levels were due to enhanced protein degradation since the relative amount of hydroxylated Proline564 was increased after BCAT1 knockdown (FIG. 4f), as intracellular αKG is a co-factor of EGLN1 activity^14. […] Finally, lentiviral overexpression of HIF1 as well as shRNA-mediated knockdown of EGLN1 was sufficient to rescue the proliferation and survival defect after BCAT1-KD (FIG. 4h, i). Together, these analyses place BCAT1 upstream of HIF1 mediating its effect via the αKG-dependent activation of EGLN1. […] Knockdown of HIF1 is sufficient to abrogate LSC function^16.

| Structure (SMILES) | resistance to daunorubicin [1] | HIF1 protein levels (EGLN1) |
| --- | --- | --- |
| COc1cccc2c1C(=O)c1c(O)c3c(c(O)c1C2=O)C[C@@](O)(C(C)=O)C[C@@H]3O[C@H]1C[C@H](N)[C@H](O)[C@H](C)O1 [daunorubicin] | increased resistance | – |
| [Cl][Co][Cl] [cobalt chloride] | – | attenuated decrease of HIF1 protein levels |
